Measured values as given in US5120828A, “Synthetic polypeptide with laminin activity” (Regents of the University of Minnesota, priority 1989, dated 1992).

Biological target: T1, peptide AC15 (Mus musculus, UniProt P02469)
T1 construct: residues 202-218 from the B1 chain of laminin; The single letter amino acid code for this polypeptide is RIQNLLKITNLRIKFVK; made in house; host or cells: chemical solid-phase (Merrifield) synthesis, no expression host
Assay: Heparin/peptide interaction specificity: competition of 3H-heparin binding to coated peptide AC15 by glycosaminoglycans
Details: 3 μg per well of peptide AC15 coated; various amounts of non-radioactive glycosaminoglycan; 2 h, 37° C.; FIG. 9
Procedure: To check whether charge was the main factor in the interaction between heparin and peptide AC15 or whether the heparin structure was also critical to this interaction, heparin along with one other sulfated glucosaminoglycan, chondroitin sulfate were used in competition experiments. A standard amount of 3 μg per well of peptide AC15 was coated on 96-well plates as described above. Wells were treated for two hours with 2 mg/ml BSA in wash buffer. Then, a final volume of 50 μl was added to each well, containing a standard amount of ^3 H-heparin (5,000 cpm per well) and various amounts of non-radioactive heparin, and chondroitin sulfate. After incubating for two hours at 37° C., the wells were washed and radioactivity was counted as described above in Example 1.

| Substance | competition for the binding of tritiated heparin to peptide AC15 |
| --- | --- |
| chondroitin sulfate | cannot mimic this effect even at very high concentrations |
| heparin | able to compete for the binding of tritiated heparin to peptide AC15 at very low concentrations |
